The supplement of paper PMC10307832

Legend:
Assay in all cases: relative viability (nuclei count vs DMSO), 5 days (fraction); higher = more cells survive
HCC-366 = system: HCC-366
How it was run: (§1)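 Lung cancer cell lines were pin-tool dosed in 1536-well plates on the day after seeding, with either a lone drug or a fixed anchor-drug dose plus five library-drug doses (not always all listed) in √10 steps. Nuclei were counted on 4× images after 5 days. Relative viability is the ratio of treated-well to vehicle-well nuclei counts, with each value a median of duplicate plates.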

NCI-H460 = system: NCI-H460
How it was run: as §1

NCI-H1975 = system: NCI-H1975
How it was run: as §1

NCI-H727 = system: NCI-H727
How it was run: as §1

NCI-H1355 = system: NCI-H1355
How it was run: as §1

HCC-827 = system: HCC-827
How it was run: as §1

A-427 = system: A-427
How it was run: as §1

NCI-H1437 = system: NCI-H1437
How it was run: as §1

EMC-BAC-2 = system: EMC-BAC-2
How it was run: as §1

HOP-62 = system: HOP-62
How it was run: as §1

NCI-H1915 = system: NCI-H1915
How it was run: as §1

NCI-H2009 = system: NCI-H2009
How it was run: as §1

SW 1573 = system: SW 1573
How it was run: as §1

COR-L 105 = system: COR-L 105
How it was run: as §1

NCI-H1792 = system: NCI-H1792
How it was run: as §1

NCI-H1395 = system: NCI-H1395
How it was run: as §1

NCI-H23 = system: NCI-H23
How it was run: as §1

HARA = system: HARA
How it was run: as §1

NCI-H2228 = system: NCI-H2228
How it was run: as §1

SK-LU-1 = system: SK-LU-1
How it was run: as §1

CAL-12T = system: CAL-12T
How it was run: as §1

NCI-H1755 = system: NCI-H1755
How it was run: as §1

Question: For C[C@@H]1CN(CC(=O)Nc2ccc3c(c2)Cc2cccc(-c4cc(=O)cc(N5CCOCC5)o4)c2S3)C[C@H](C)O1 + CC1(C)CCC(c2ccc(Cl)cc2)=C(CN2CCN(c3ccc(C(=O)NS(=O)(=O)c4ccc(N[C@H](CCN5CCOCC5)CSc5ccccc5)c(S(=O)(=O)C(F)(F)F)c4)cc3)CC2)C1 [Navitoclax] (partner 0.5 µM), which relative viability (HCC-366; first compound 0.04 µM) is on record?
Answer: The relative viability was 1.04.

Question: What about the relative viability (HCC-366; first compound 0.1265 µM) of the same compound?
Answer: Its relative viability is 1.08.

Question: And the relative viability (HCC-366; first compound 0.4 µM)?
Answer: Its relative viability is 1.15.

Question: What about the relative viability (HCC-366; first compound 4 µM) of the same compound?
Answer: Its relative viability is 0.944.

Question: And the relative viability (NCI-H460; first compound 0.04 µM)?
Answer: Its relative viability is 1.07.

Question: And the relative viability (NCI-H460; first compound 0.1265 µM)?
Answer: Its relative viability is 1.17.

Question: And the relative viability (NCI-H460; first compound 0.4 µM)?
Answer: The relative viability was 1.22.

Question: What about the relative viability (NCI-H460; first compound 4 µM) of the same compound?
Answer: Its relative viability is 0.955.

Question: And the relative viability (NCI-H1975; first compound 0.04 µM)?
Answer: Its relative viability is 1.33.

Question: What about the relative viability (NCI-H1975; first compound 0.1265 µM) of the same compound?
Answer: The relative viability was 1.06.

Question: And the relative viability (NCI-H1975; first compound 0.4 µM)?
Answer: The relative viability was 1.02.

Question: And the relative viability (NCI-H1975; first compound 4 µM)?
Answer: Its relative viability is 0.846.

Question: And the relative viability (NCI-H727; first compound 0.04 µM)?
Answer: Its relative viability is 0.482.

Question: And the relative viability (NCI-H727; first compound 0.1265 µM)?
Answer: Its relative viability is 0.494.

Question: And the relative viability (NCI-H727; first compound 0.4 µM)?
Answer: The relative viability was 0.412.

Question: What about the relative viability (NCI-H727; first compound 4 µM) of the same compound?
Answer: Its relative viability is 0.381.

Question: And the relative viability (NCI-H1355; first compound 0.04 µM)?
Answer: Its relative viability is 0.978.

Question: What about the relative viability (NCI-H1355; first compound 0.1265 µM) of the same compound?
Answer: Its relative viability is 0.894.

Question: And the relative viability (NCI-H1355; first compound 0.4 µM)?
Answer: Its relative viability is 0.856.

Question: And the relative viability (NCI-H1355; first compound 4 µM)?
Answer: Its relative viability is 0.899.

Question: What about the relative viability (HCC-827; first compound 0.04 µM) of the same compound?
Answer: Its relative viability is 0.931.

Question: What about the relative viability (HCC-827; first compound 0.1265 µM) of the same compound?
Answer: Its relative viability is 0.944.

Question: What about the relative viability (HCC-827; first compound 0.4 µM) of the same compound?
Answer: The relative viability was 1.04.

Question: What about the relative viability (HCC-827; first compound 4 µM) of the same compound?
Answer: Its relative viability is 1.03.

Question: What about the relative viability (A-427; first compound 0.04 µM) of the same compound?
Answer: The relative viability was 0.988.

Question: What about the relative viability (A-427; first compound 0.1265 µM) of the same compound?
Answer: Its relative viability is 0.982.

Question: What about the relative viability (A-427; first compound 0.4 µM) of the same compound?
Answer: Its relative viability is 0.983.

Question: And the relative viability (A-427; first compound 4 µM)?
Answer: The relative viability was 0.967.

Question: What about the relative viability (NCI-H1437; first compound 0.04 µM) of the same compound?
Answer: The relative viability was 1.14.

Question: And the relative viability (NCI-H1437; first compound 0.1265 µM)?
Answer: Its relative viability is 1.1.

Question: What about the relative viability (NCI-H1437; first compound 0.4 µM) of the same compound?
Answer: Its relative viability is 1.13.

Question: And the relative viability (NCI-H1437; first compound 4 µM)?
Answer: Its relative viability is 0.882.

Question: What about the relative viability (EMC-BAC-2; first compound 0.04 µM) of the same compound?
Answer: Its relative viability is 1.16.

Question: What about the relative viability (EMC-BAC-2; first compound 0.1265 µM) of the same compound?
Answer: Its relative viability is 1.12.

Question: What about the relative viability (EMC-BAC-2; first compound 0.4 µM) of the same compound?
Answer: Its relative viability is 1.17.

Question: What about the relative viability (EMC-BAC-2; first compound 4 µM) of the same compound?
Answer: Its relative viability is 1.09.

Question: What about the relative viability (HOP-62; first compound 0.04 µM) of the same compound?
Answer: Its relative viability is 0.879.

Question: What about the relative viability (HOP-62; first compound 0.1265 µM) of the same compound?
Answer: The relative viability was 0.979.

Question: What about the relative viability (HOP-62; first compound 0.4 µM) of the same compound?
Answer: The relative viability was 1.14.

Question: And the relative viability (HOP-62; first compound 4 µM)?
Answer: The relative viability was 1.01.

Question: And the relative viability (NCI-H1915; first compound 0.04 µM)?
Answer: The relative viability was 0.792.

Question: What about the relative viability (NCI-H1915; first compound 0.1265 µM) of the same compound?
Answer: The relative viability was 0.789.

Question: And the relative viability (NCI-H1915; first compound 0.4 µM)?
Answer: The relative viability was 0.796.

Question: And the relative viability (NCI-H1915; first compound 4 µM)?
Answer: The relative viability was 0.753.

Question: And the relative viability (NCI-H2009; first compound 0.04 µM)?
Answer: Its relative viability is 1.17.

Question: And the relative viability (NCI-H2009; first compound 0.1265 µM)?
Answer: The relative viability was 1.1.

Question: And the relative viability (NCI-H2009; first compound 0.4 µM)?
Answer: The relative viability was 1.15.

Question: What about the relative viability (NCI-H2009; first compound 4 µM) of the same compound?
Answer: The relative viability was 0.915.

Question: And the relative viability (SW 1573; first compound 0.04 µM)?
Answer: The relative viability was 0.979.

Question: And the relative viability (SW 1573; first compound 0.1265 µM)?
Answer: The relative viability was 1.05.

Question: What about the relative viability (SW 1573; first compound 0.4 µM) of the same compound?
Answer: Its relative viability is 0.846.

Question: And the relative viability (SW 1573; first compound 4 µM)?
Answer: The relative viability was 0.842.

Question: What about the relative viability (COR-L 105; first compound 0.04 µM) of the same compound?
Answer: Its relative viability is 1.01.

Question: What about the relative viability (COR-L 105; first compound 0.1265 µM) of the same compound?
Answer: The relative viability was 0.801.

Question: And the relative viability (COR-L 105; first compound 0.4 µM)?
Answer: The relative viability was 0.728.

Question: What about the relative viability (COR-L 105; first compound 4 µM) of the same compound?
Answer: The relative viability was 0.686.

Question: What about the relative viability (NCI-H1792; first compound 0.04 µM) of the same compound?
Answer: The relative viability was 0.593.

Question: What about the relative viability (NCI-H1792; first compound 0.1265 µM) of the same compound?
Answer: Its relative viability is 0.597.

Question: And the relative viability (NCI-H1792; first compound 0.4 µM)?
Answer: Its relative viability is 0.632.

Question: What about the relative viability (NCI-H1792; first compound 4 µM) of the same compound?
Answer: The relative viability was 0.597.

Question: And the relative viability (NCI-H1395; first compound 0.04 µM)?
Answer: The relative viability was 1.16.

Question: What about the relative viability (NCI-H1395; first compound 0.1265 µM) of the same compound?
Answer: Its relative viability is 1.26.

Question: And the relative viability (NCI-H1395; first compound 0.4 µM)?
Answer: Its relative viability is 1.35.

Question: And the relative viability (NCI-H1395; first compound 4 µM)?
Answer: The relative viability was 1.16.

Question: What about the relative viability (NCI-H23; first compound 0.04 µM) of the same compound?
Answer: The relative viability was 1.

Question: What about the relative viability (NCI-H23; first compound 0.1265 µM) of the same compound?
Answer: The relative viability was 1.03.

Question: What about the relative viability (NCI-H23; first compound 0.4 µM) of the same compound?
Answer: The relative viability was 0.708.

Question: And the relative viability (NCI-H23; first compound 4 µM)?
Answer: The relative viability was 0.668.

Question: What about the relative viability (HARA; first compound 0.04 µM) of the same compound?
Answer: The relative viability was 1.2.

Question: And the relative viability (HARA; first compound 0.1265 µM)?
Answer: The relative viability was 1.12.

Question: And the relative viability (HARA; first compound 0.4 µM)?
Answer: Its relative viability is 1.21.

Question: And the relative viability (HARA; first compound 4 µM)?
Answer: Its relative viability is 1.14.

Question: What about the relative viability (NCI-H2228; first compound 0.04 µM) of the same compound?
Answer: The relative viability was 1.02.

Question: What about the relative viability (NCI-H2228; first compound 0.1265 µM) of the same compound?
Answer: Its relative viability is 1.11.

Question: And the relative viability (NCI-H2228; first compound 0.4 µM)?
Answer: The relative viability was 0.639.

Question: And the relative viability (NCI-H2228; first compound 4 µM)?
Answer: Its relative viability is 0.753.

Question: What about the relative viability (SK-LU-1; first compound 0.04 µM) of the same compound?
Answer: The relative viability was 0.761.

Question: And the relative viability (SK-LU-1; first compound 0.1265 µM)?
Answer: Its relative viability is 0.969.

Question: And the relative viability (SK-LU-1; first compound 0.4 µM)?
Answer: The relative viability was 0.956.

Question: What about the relative viability (SK-LU-1; first compound 4 µM) of the same compound?
Answer: The relative viability was 0.637.

Question: What about the relative viability (CAL-12T; first compound 0.04 µM) of the same compound?
Answer: Its relative viability is 1.42.

Question: What about the relative viability (CAL-12T; first compound 0.1265 µM) of the same compound?
Answer: The relative viability was 1.11.

Question: And the relative viability (CAL-12T; first compound 0.4 µM)?
Answer: The relative viability was 1.07.

Question: What about the relative viability (CAL-12T; first compound 4 µM) of the same compound?
Answer: The relative viability was 0.652.

Question: And the relative viability (NCI-H1755; first compound 0.04 µM)?
Answer: Its relative viability is 1.02.

Question: And the relative viability (NCI-H1755; first compound 0.1265 µM)?
Answer: Its relative viability is 0.945.

Question: And the relative viability (NCI-H1755; first compound 0.4 µM)?
Answer: Its relative viability is 0.924.

Question: And the relative viability (NCI-H1755; first compound 4 µM)?
Answer: Its relative viability is 0.92.
